Reference: paper PMC9423655, “Huntington’s disease phenotypes are improved via mTORC1 modulation by small molecule therapy” (PLoS ONE, 2022)
Like-named read-outs stand apart in the source and are kept apart here.

Tests used:
Format in all cases: in vivo
N171-82Q HD mice = assay: Chronic 6-week treatment: weight, forelimb grip strength, accelerating rotarod; conditions: N171-82Q mice
Procedure: (§1) The initial trial consisted in one week of oral dosing in 12 weeks old N171-82Q males. The chronic 6 weeks treatment (Veh n = 15, NV-5297 n = 14) took place from 6 to 12 weeks of age. The cardiac stress took place in animals from 10 to 12 weeks of age (Veh-Sal n = 9, NV-Sal n = 10, Veh-Iso n = 16, NV-Iso n = 11).
The accelerated rotarod (model 47600; Ugo Basile, Comerio, Italy) test was carried out as previously described. Mice were tested at 5 (baseline) and 12 weeks of age. Briefly, mice were habituated to the test room for an hour. On the first day, mice were trained on the rotarod for 5 minutes at 4 rpm. Mice were then tested in three trials per day (with at least 30 minutes of rest between trials) for four consecutive days. For each trial, the rotarod accelerated from 4 to 40 rpm over 4 minutes with constant speed at 40 rpm for an additional minute. Trials were stopped at 300 seconds. Latency to fall (or two consecutive rotations without running) was recorded for every trial. For grip strength, mice were tested at 5 (baseline), 9 and 12 weeks of age. Mice were habituated to the test room for 1 hour. The mouse held a pull bar with both paws and are then pulled horizontally until they let go of the pull bar. Forelimb grip strength at the peak tension was measured five times per mice (Columbus Instrument). There were at least 30 minutes of rest between trials. The grip strength is calculated as the average of the four highest grip strength recorded.

mTORC1 pathway (pS6) [1] = assay: pS6 immunoblot of striatum and heart after one week of oral dosing in N171-82Q HD mice; conditions: N171-82Q mice, oral 160 mg/kg daily for one week
Procedure: as §1
(§2) Specific regions of the brain and heart were homogenized using a Next Advance Bullet Blender Storm in Lysis Buffer (Cell lysis buffer: 1% Triton X-100, 50 mM HEPES pH 7.4, 100 mM sodium chloride, 2 mM EDTA, 10 mM Beta-glycerophosphate, 10 mM Sodium pyrophosphate, and 1 protease inhibitor) at 4°C. Lysates were cleared by centrifugation at 13,200 rpm at 4°C for 10 minutes. Equal amounts of total protein from each sample were denatured and, resolved by SDS-PAGE. Membranes were imaged using the LI-COR imaging system. Proteins levels are normalized to tubulin, actin or GAPDH levels and further normalized to vehicle treated mice for each tissue.
Supplementary file pone.0273710.s002.tiff: S2 Fig Activation of the mTORC1 pathway in mice striatum and heart after oral dosing with NV-5297. (A) Representative immunoblot for the phosphorylated (^S240/244pS6), S6 and actin or tubulin in the striatum and heart of N171-82Q wild-type (WT) mice or N171-82Q HD mice respectively collected 1 hour after the last dose of a week of oral dosing with vehicle (Veh) or NV-5297 (160 mg/kg; A). Quantification of levels of ^S240/244pS6 in the striatum (B) and the heart (C) normalized to loading control levels and further normalized to untreated WT mice. Data are presented as mean ± SEM. **P ≤ 0.01, ***P ≤ 0.001 and ****P ≤ 0.0001 (Kruskal-Wallis test with Dunn’s multiple comparison tests). (TIFF) Click here for additional data file.

[2] = Pharmacokinetic analysis of NV-5297 in mice (i.v. and oral, LC-MS/MS); conditions: C57BL/6 mice
Procedure: […] Mice were given free access to food and water for both i.v. and orally dosed groups. After dosing, tail-vein blood was collected at the indicated time points into K2EDTA tubes and centrifuged at 2,000g for 5 minutes to collect serum. Levels of NV-5297 were quantified via LC-MS/MS. WinNonlin V 6.2 statistics software (Pharsight Corporation, California, USA) was used to generate pharmacokinetics parameters using non-compartmental model.
PK parameters of NV-5297 after an IV dose at 1 mg/kg
PK parameters Unit Estimate
PK parameters of NV-5297 after an OD dose at 5 mg/kg

mTORC1 pathway (pS6) [3] = assay: pS6 immunoblot of tissues after one oral dose in C57BL/6 mice; conditions: single oral 160 mg/kg
Procedure: as §2
Fig 1 NV-5297 is a leucine analog activating the mTORC1 pathway in the brain and peripheral tissues. (A) NV-5297 chemical structure. Representative immunoblots of phosphorylated S6 (^S240/244pS6) from homogenized tissues from C57BL/6 mice orally dosed once with NV-5297 (160 mg/kg) and sacrificed 1 hour later (B) and quantification of the immunoblots normalized to loading controls and vehicle treated mice (n = 10 per treatment) (C). […]

[4] = oral 160 mg/kg daily for 6 weeks
[5] = male, mouse, serum, IV dose at 1 mg/kg
[6] = male, mouse, serum, OD (oral) dose at 5 mg/kg

With `CC(C)(C[C@H](N)C(=O)O)C(F)(F)F` [NV-5297, (S)-2-amino-5,5,5-trifluoro-4,4-dimethylpentanoic acid] the “accelerating rotarod motor performance over 4-day trial” value (N171-82Q HD mice; 12 weeks of age, oral 160 mg/kg daily for 6 weeks) was “improved rotarod motor performance”, the “adverse effects to the treatment” value (N171-82Q HD mice; NV-5297 treatment, response to reviewers) was “No mice had explicit adverse effects” and the forelimb grip strength (N171-82Q HD mice; [4]) was “did not impact”. For the same compound, the weight loss (N171-82Q HD mice; [4]) was “did not impact”, the “pS6 in heart relative to vehicle” value (mTORC1 pathway (pS6) [1]) was “increased” and the “pS6 in striata relative to vehicle” value (mTORC1 pathway (pS6) [1]) was “increased”. The “ratio of pS6 level in striatum and heart compared with age-matched WT mice” value (mTORC1 pathway (pS6) [1]) was “normalized”, the Cmax ([2]; OD (oral) dose at 5 mg/kg) was 2893 ng/mL and the bioavailability ([2]; male, mouse, serum, po, 160 mg/kg, refers to S1 Table, read-out: oral bioavailability) was 100%. The half-life ([2]; male, mouse, serum, oral, 160 mg/kg, refers to S1 Table, read-out: half-life (converted)) was ~3 h, the Tmax ([2]; male, mouse, serum, oral, 160 mg/kg, refers to S1 Table, read-out: time to maximal concentration (tmax) (converted)) was 0.5 h and the AUC(0-inf) [2, 5] was 1240 ng·h/mL. The AUC(0-t) [2, 5] was 1220 ng·h/mL, the MRT inf [2, 5] was 1.56 h and the clearance [2, 5] was 13.3 mL/min/kg. For the same compound, the half-life ([2]; male, mouse, serum, IV dose at 1 mg/kg, read-out: Terminal T1/2 (converted)) was 1.45 h, the Vd ([2]; male, mouse, serum, IV dose at 1 mg/kg, read-out: Vss) was 1.26 L/kg and the bioavailability ([2]; male, mouse, serum, OD (oral) dose at 5 mg/kg vs IV 1 mg/kg, read-out: F (bioavailability)) was 104%. For the same compound, the AUC(0-inf) [2, 6] was 6470 ng·h/mL, the AUC(0-t) [2, 6] was 6460 ng·h/mL and the half-life ([2]; male, mouse, serum, OD (oral) dose at 5 mg/kg, read-out: Terminal T1/2 (converted)) was 2.86 h. For the same compound, the Tmax ([2]; male, mouse, serum, OD (oral) dose at 5 mg/kg, read-out: Tmax) was 0.5 h, the “pS6 in brain regions relative to controls” value (mTORC1 pathway (pS6) [3]; sacrificed 1 hour later) was “increased pS6 in all regions sampled” and the “pS6 in peripheral tissues relative to vehicle” value (mTORC1 pathway (pS6) [3]; tissues collected 1 hour later) was “increased pS6”.
